Measured values reported in patent publication US12109176B1, “Effect of glycerol on biofilm forming bacteria and fungi that changes the microbes sensitivity to pro and anti-biofilm non-toxic, non-bonded plasma amino acids and amino acid derivatives” (priority 2023, dated 2024).

Tests used:
bacterial biofilm = experiment: In vitro testing on bacterial biofilm (inhibition and/or disruption); type: cell-based; details: in vitro testing
Protocol: (§1) Two types of biofilm assays were performed: an inhibition assay and a disruption assay. The inhibition assay assesses the compound's ability to prevent biofilm development, while the disruption assay assesses the compound's ability to break up an existing mature biofilm.
(§2) All bacterial biofilm solutions were prepared in Tryptic Soy Broth (TSB), supplemented with 1% glucose (henceforth referred to as TSB-G). All subsequent procedures were performed in a manner that maintained sterility. A solution of each amino acid or an amino acid derivative to be tested was prepared in weight to volume concentrations ranging from 0.1-5.0%. Amino acids and amino acid derivatives were also tested in combinations. Compound solutions were homogenized with gentle agitation in the dark (4° C., 24 hours) before use.
(§3) 32 Amino acids and 2 amino acid derivatives of the amino acid serine that occur freely in human blood were tested. […] 31 of the 32 amino acids that were tested were the L-Isomers. Glycine has no stereoisomers. The 2 amino acid derivatives, ethanolamine and phosphoethanolamine were also tested. All biofilm assays were performed using 384-well non-tissue culture-treated polystyrene plates. The fungal species tested are as follows: Candida albicans, Candida guilliermondii, Candida parapsilosis, Candida glabrata, Candida tropicalis and Candida dubliniensis. The bacterial species tested are as follows: Staphylococci (standard wild type and methicillin-resistant strain USA300), Escherichia coli, Pseudomonas aeruginosa and Staphylococcus epidermidis.
(§4) Bacterial strains were streaked on Blood Agar plates (5% sheep blood in Tryptic Soy Broth) and incubated at 37° C. for 24 hours. A single colony from each strain to be tested was inoculated in a TSB broth and grown for 12 hours, at 37° C. with shaking (225 rpm). For the bacterial biofilm inhibition assays, 1 μL of saturated overnight cell culture was added to either 80 μL of TSB-G, or TSB-G supplemented with the amino acid compound solution to be tested, in a 384-well plate. The cells were allowed to adhere to the plate for 60 minutes at 37° C. without shaking. The media was carefully aspirated and 80 μL of TSB-G, or TSB-G supplemented with the amino acid compound solution was added to the plate. The plate was further incubated for 24 hours at 37° C. without shaking. Media was carefully aspirated and the biofilm was measured by optical density at 600 nm. Eight or twelve replicates were performed for each tested condition and the reported values are normalized to the control (TSB-G media only). For the bacterial biofilm disruption assays, 80 µL of TSB-G was added to the plate, along with 1 μL of overnight cell culture. The cells were allowed to adhere to the plate for 60 minutes at 37° C. with no shaking. The media was carefully aspirated and 80 μL of TSB-G was added to the plate. The plate was further incubated for 24 hours at 37° C. with no shaking. Media was carefully aspirated from the mature biofilm and 80 μL of TSB-G, or TSB-G supplemented with the amino acid to be tested, was gently added to the plate. The plate was further incubated for 24 hours at 37° C. without shaking. Media was aspirated and the biofilm was measured by optical density at 600 nm. Twelve replicates were performed for each tested condition and the reported values are normalized to the control (TSB-G media only).

[1] = tested on: bacterial (S. aureus) biofilm; experiment: Bacterial biofilm inhibition assay; type: cell-based, Staphylococcus aureus
Protocol: as §1, §2, §3, §4

[2] = tested on: bacterial (S. aureus) biofilm and fungal biofilm (C. albicans); experiment: Biofilm inhibition assay, bacterial and fungal taken together; type: cell-based; details: symbol marks the assay
Protocol: as §1, §2, §3
Fungal strains were streaked on Yeast Peptone Dextrose (YPD) agar plates and incubated at 30° C. for 48 hours. A single colony from each strain to be tested was inoculated into YPD broth and grown for 12 hours at 30° C., shaking at 225 rpm. […] The cells were allowed to adhere to the plate for 90 minutes at 37° C. with shaking (350 rpm). […] The plate was further incubated for 24 hours at 37° C. with shaking (350 rpm). Media was carefully aspirated and the biofilm was measured by optical density at 600 nm. […] The cells were allowed to adhere to the plate for 90 minutes at 37° C. with shaking (350 rpm). […] The plate was further incubated for 24 hours at 37° C. with shaking (350 rpm). […] The plate was further incubated for 24 hours at 37° C. with shaking (350 rpm). Media was carefully aspirated, and the biofilm was measured by optical density at 600 nm.
as §4, with “plate.” for “plate. The plate was further incubated for 24 hours at 37° C. without shaking. Media was aspirated and the biofilm was measured by optical density at 600 nm. Twelve replicates were performed for each tested condition and the reported values are normalized to the control (TSB-G media only).”

[3] = Table E, in the absence of an infusion of glycerol
[4] = Table D, Neutral = no effect on the biofilm
[5] = Table F, in the presence of a sufficient concentration of glycerol

SMILES | effect on bacterial biofilm (in words) (bacterial biofilm) | Promote B Biofilm (squares: Inhibition Biofilm Assay) ([1]; Table D, 0.1 to 5.0%) | Promote B Biofilm (squares: Inhibition Biofilm Assay) [1, 3] | Neutral (square: Inhibition Biofilm Assay) [2, 4] | Neutral (square: Inhibition Biofilm Assay) [2, 3] | Neutral (square: Inhibition Biofilm Assay) [2, 5] | Reduce or Inhibit B Biofilm (squares: Inhibition Biofilm Assay) ([1]; Table D, 0.1 to 5.0%) | Reduce or Inhibit B Biofilm (squares: Inhibition Biofilm Assay) [1, 5]
C[C@@H](O)[C@H](N)C(=O)O [Threnonine, L-threonine] | promoted bacterial biofilm formation |  |  |  |  |  |  | 
N=C(N)NCCC[C@H](N)C(=O)O [Arginine, L-arginine] | promoted bacterial biofilm formation | ▪ (Single square [ie. ▪] signifies little effect on the Inhibition Biofilm Assay (from about 10 to less than 30%)) | ▪ (Single square [ie. ▪] signifies little effect on the Inhibition Biofilm Assay (from about 10 to less than 30%)) |  |  |  |  | 
O=C(O)[C@@H]1CCCN1 [Proline, L-proline] | promoted bacterial biofilm formation |  |  | ▪ (Single square [ie. ▪] signifies little effect on the Inhibition Biofilm Assay (from about 10 to less than 30%)) | ▪ (Single square [ie. ▪] signifies little effect on the Inhibition Biofilm Assay (from about 10 to less than 30%)) | ▪ (Single square [ie. ▪] signifies little effect on the Inhibition Biofilm Assay (from about 10 to less than 30%)) |  | 
NCCCC[C@H](N)C(=O)O [Lysine, L-lysine] | promoted bacterial biofilm formation | ▪ (Single square [ie. ▪] signifies little effect on the Inhibition Biofilm Assay (from about 10 to less than 30%)) | ▪ (Single square [ie. ▪] signifies little effect on the Inhibition Biofilm Assay (from about 10 to less than 30%)) |  |  |  |  | 
NC(=O)NCCC[C@H](N)C(=O)O [Citrulline, L-citrulline] | promoted bacterial biofilm formation | ▪ (Single square [ie. ▪] signifies little effect on the Inhibition Biofilm Assay (from about 10 to less than 30%)) | ▪ (Single square [ie. ▪] signifies little effect on the Inhibition Biofilm Assay (from about 10 to less than 30%)) |  |  |  |  | 
CC(C)C[C@H](N)C(=O)O [Leucine, L-leucine] | promoted bacterial biofilm formation | ▪ (Single square [ie. ▪] signifies little effect on the Inhibition Biofilm Assay (from about 10 to less than 30%)) | ▪ (Single square [ie. ▪] signifies little effect on the Inhibition Biofilm Assay (from about 10 to less than 30%)) |  |  |  |  | 
NCC(=O)O [Glycine, L-glycine] | promoted bacterial biofilm formation | ▪ (Single square [ie. ▪] signifies little effect on the Inhibition Biofilm Assay (from about 10 to less than 30%)) | ▪ (Single square [ie. ▪] signifies little effect on the Inhibition Biofilm Assay (from about 10 to less than 30%)) |  |  |  |  | 
NCCC[C@H](N)C(=O)O [Ornithine, L-ornithine] | promoted bacterial biofilm formation |  |  | ▪ (Single square [ie. ▪] signifies little effect on the Inhibition Biofilm Assay (from about 10 to less than 30%)) | ▪ (Single square [ie. ▪] signifies little effect on the Inhibition Biofilm Assay (from about 10 to less than 30%)) | ▪ (Single square [ie. ▪] signifies little effect on the Inhibition Biofilm Assay (from about 10 to less than 30%)) |  | 
NCCS(=O)(=O)O [Taurine, L-taurine] | promoted bacterial biofilm formation |  |  |  |  |  |  | 
CCC(N)C(=O)O (stereo not shown) [2 Aminobutyric Acid, 2-aminobutyric acid] |  |  |  | ▪ (Single square [ie. ▪] signifies little effect on the Inhibition Biofilm Assay (from about 10 to less than 30%)) | ▪ (Single square [ie. ▪] signifies little effect on the Inhibition Biofilm Assay (from about 10 to less than 30%)) | ▪ (Single square [ie. ▪] signifies little effect on the Inhibition Biofilm Assay (from about 10 to less than 30%)) |  | 
NCCC(=O)O [Beta-Alanine, Beta-alanine] | antibacterial biofilm effect |  |  |  |  |  | ▪ (Single square [ie. ▪] signifies little effect on the Inhibition Biofilm Assay (from about 10 to less than 30%)) | ▪ (Single square [ie. ▪] signifies little effect on the Inhibition Biofilm Assay (from about 10 to less than 30%))
Cn1cnc(C[C@H](N)C(=O)O)c1 [1-Methylhistidine, 1-methyl-L-histidine] |  |  |  | ▪ (Single square [ie. ▪] signifies little effect on the Inhibition Biofilm Assay (from about 10 to less than 30%)) | ▪ (Single square [ie. ▪] signifies little effect on the Inhibition Biofilm Assay (from about 10 to less than 30%)) | ▪ (Single square [ie. ▪] signifies little effect on the Inhibition Biofilm Assay (from about 10 to less than 30%)) |  | 
N[C@@H](Cc1ccccc1)C(=O)O [Phenylalanine, L-phenylalanine] | promoted bacterial biofilm formation | ▪ (Single square [ie. ▪] signifies little effect on the Inhibition Biofilm Assay (from about 10 to less than 30%)) | ▪ (Single square [ie. ▪] signifies little effect on the Inhibition Biofilm Assay (from about 10 to less than 30%)) |  |  |  |  | 
CSCC[C@H](N)C(=O)O [Methionine, L-methionine] | promoted bacterial biofilm formation | ▪ (Single square [ie. ▪] signifies little effect on the Inhibition Biofilm Assay (from about 10 to less than 30%)) | ▪ (Single square [ie. ▪] signifies little effect on the Inhibition Biofilm Assay (from about 10 to less than 30%)) |  |  |  |  | 
